Test results published in US12421497B2, “Method for enriching cardiac myocytes” (Orizuru Therapeutics, Inc., priority 2019, dated 2025).
Where two headings read alike, the source gives them in different places.

Legend:
[1] = test system: “CD151-low” cell subpopulation obtained under conditions for differentiation into atrial myocytes; experiment: Membrane potential analysis (FluoVolt dye) of response to atrial myocyte-specific channel inhibitor or activator, CD151-low cells; assay type: cell-based, human; conditions: 3 Hz pacing
Protocol: (§1) The “CD151-high” cell subpopulation was obtained under conditions for differentiation into ventricular myocytes and the “CD151-low” cell subpopulation was obtained under conditions for differentiation into atrial myocytes in Test Example 2. Then, their response to an atrial […] channel inhibitor 4-aminopyridine or activator carbachol was analyzed.
(§2) Each cell subpopulation was seeded at 5×10^4 cells/5 μL and cultured on a glass-bottom dish coated with fibronectin. StemPro-34 SFM containing 1% L-glutamine, 150 μg/mL transferrin, 50 μg/mL ascorbic acid, 4×10^−4 M monothioglycerol, and 5 ng/ml VEGF was used. The culture medium was changed every 3 days, and the cells were cultured at 37° C. under regular oxygen conditions. The cells at culture days 6 to 10 were subjected to membrane potential analysis.
(§3) First, the culture medium was removed. Next, 0.2 μL of membrane potential sensitive dye (FluoVolt, ThermoFisher scientific, F10488) was added per 200 μL of Gey's balanced salt solution (Sigma). […] Each “CD151-high”-induced cell was analyzed under 1 Hz pacing, and each “CD151-low”-induced cell was analyzed under 3 Hz pacing.
(§4) An AquaCosmos2.6 (Hamamatsu Photonics K. K.) was used for the analysis. While each cell was irradiated with excitation light at 490 nm every 5.9 ms for 20 s, the fluorescence response was measured. […]

[2] = test system: “CD151-high” cell subpopulation obtained under conditions for differentiation into ventricular myocytes; experiment: Membrane potential analysis (FluoVolt dye) of response to atrial myocyte-specific channel inhibitor or activator, CD151-high cells; assay type: cell-based, human; conditions: 1 Hz pacing
Protocol: as §1, §2, §3, §4

atrial myocyte = conditions: cited from earlier work
ventricular myocyte = conditions: cited from earlier work
[3] = 4-aminopyridine 50 μM final, 10 min after addition, FIG. 5(A)
[4] = carbachol 10 μM final, 1 min after addition, FIG. 5(B)

| SMILES | effect on action potential duration (APD) [1, 3] | effect on action potential duration (APD) [2, 3] | effect on APD20 (atrial myocyte; 4-aminopyridine added to a cell, blocker of ultra-rapidly activating delayed rectifier potassium channel (IKur)) | effect on APD (ventricular myocyte; 4-aminopyridine added to a cell) | effect on action potential duration (APD) [1, 4] | effect on action potential duration (APD) [2, 4] | effect on action potential duration (APD) (atrial myocyte; carbachol added to a cell, activator of muscarinic potassium channel (IK,Ach)) | effect on APD (ventricular myocyte; carbachol added to a cell) |
| --- | --- | --- | --- | --- | --- | --- | --- | --- |
| Nc1ccncc1 [4-aminopyridine] | prolong the action potential duration (APD) | little APD extension | prolonged only in the atrial myocyte | not affected |  |  |  |  |
| C[N+](C)(C)CCOC(N)=O [carbachol] |  |  |  |  | shorten the APD | no APD change | shortened only in the atrial myocyte | not affected |
